The values below come from US5939098A, “Cancer treatment with temozolomide” (Schering Corporation, priority 1997, dated 1999).

A short description of data set [1]: side effects of temozolomide administration. It counts as in vivo, patient. The conditions noted are these: can be alleviated by an anti-emetic. How it is done:
It is preferred that the anti-emetic Ondansetron be given p.o. in a dose of about 8 mg about 30 minutes before temozolomide administration. Of course other anti-emetics such as Hasaldol, Benadryl, and Ativan may also be used as needed.

For data set [2], the system named is advanced melanoma. Conditions: patients with advanced melanoma; Journal of Clinical Oncology, Vol 13, No. 4, 1995, pp 910-913; cited from earlier work.
Details of data set [3]: species or system patient. The conditions noted are these: human, in vivo. The protocol: Prior to this invention it was generally believed that administering temozolomide to a patient having food in their stomach or to a patient who consumed food too soon before or after administering of the temozolomide would interfere with the bioiavailability of the temozolomide. A fasting of about 8 hours, before administering of temozolomide and 4 hours after receiving temozolomide was believed necessary. Since two twelve-hour fasting periods per day would obviously be unacceptable, it was believed that temozolomide could be administered a maximum of once per day. […] Therefore long fasting periods before and after administration of temozolomide are not necessary. Dosing with temozolomide more than once per day may improve the effectiveness of the treatment. This is so because increasing the frequency of dosing may deplete the O^6 -aklylguanine DNA alkyltransferase more effectively and maintain the depletion of this repair enzyme, resulting therefore in better effectiveness of the drug.

For data set [4], the system named is advanced melanoma. Conditions: patients having advanced melanoma; Newlands ES, et al. Br J Cancer 65 (2), 1992; cited from earlier work.

Take `Cn1nnc2c(C(N)=O)ncn2c1=O` [temozolomide, 3,4-dihydro-3-methyl-4-oxoimidazo-[5,1-d]1,2,3,4-tetrazin-8-carboximide]: in data set [1], the “common, but tolerable side effect” value is “nausea and vomiting”. For the same compound, the “clinical response achieved, % of patients” value in data set [2] is reported as 21%. Besides, the “Area Under Curve (AUC) for those fed as % of AUC for those fasted” value in data set [3] is given as “about 90%”. In addition, in data set [4], the “clinical responses achieved, % of patients” value is 17%.
